Laboratory results taken from patent US20260347373A1, “HETEROCYCLIC COMPOUNDS, COMPOSITIONS THEREOF, AND METHODS OF TREATMENT THEREWITH” (BeOne Medicines I GmbH, priority 2023, published 2026).
Like-named read-outs stand apart in the source and are kept apart here.

Tests used:
[1] = target: WT KRAS (Homo sapiens, UniProt P01116); experiment: KRAS WT Probe Displacement Assay (TR-FRET, GDP-loaded); assay type: binding
Description: (§1) The synthetic routes of probe 1 and 2, which have been disclosed in PCT/CN2022/070676, are hereby incorporated herein.

[2] = target: KRAS G12D (Homo sapiens, UniProt P01116, G12D); experiment: KRAS G12D Probe Displacement Assay (TR-FRET, GDP-loaded); assay type: binding
Chain of KRAS G12D (P01116 1-188 isoform P01116-2 G12D): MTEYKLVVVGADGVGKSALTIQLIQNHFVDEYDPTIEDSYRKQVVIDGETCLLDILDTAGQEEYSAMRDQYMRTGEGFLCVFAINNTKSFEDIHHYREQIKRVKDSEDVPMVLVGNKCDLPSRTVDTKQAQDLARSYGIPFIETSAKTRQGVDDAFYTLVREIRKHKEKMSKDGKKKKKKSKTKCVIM
Description: as §1

[3] = KRAS WT, read-out: KRAS^WT Probe Displacement Assay IC50
[4] = KRAS G12D, read-out: KRAS^G12D Probe Displacement Assay IC50

Chain of WT KRAS (P01116 1-188 isoform P01116-2): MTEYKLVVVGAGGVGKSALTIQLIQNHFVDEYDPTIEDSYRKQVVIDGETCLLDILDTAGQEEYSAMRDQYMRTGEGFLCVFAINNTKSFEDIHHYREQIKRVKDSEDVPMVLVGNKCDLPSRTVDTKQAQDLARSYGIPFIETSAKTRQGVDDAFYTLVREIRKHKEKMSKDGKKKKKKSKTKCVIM

Row | SMILES | IC50 [1, 3] | IC50 [2, 4] | IC50 ([1]; KRAS^WT Probe Displacement Assay IC50, KRAS WT) | IC50 ([2]; KRAS^G12D Probe Displacement Assay IC50, KRAS G12D)
1 | Cc1nc(N)cc(-c2nc3c4c(nc(OCC5(CN6CCC(=CF)CC6)CC5)nc4c2F)N2C[C@H]4CC[C@H](N4)[C@H]2CCO3)c1C(F)(F)F [Example 155, 4-((6aR,7S,10R)-1-fluoro-13-((1-((4-(fluoromethylene)piperidin-1-yl)methyl)cyclopropyl)methoxy)-5,6,6a,7,8,9,10,11-octahydro-4-oxa-3,11a,12,14,15-pentaaza-7,10-methanocyclohepta[4,5]cycloocta [1,2,3-de]naphthalen-2-yl)-6-methyl-5-(trifluoromethyl)pyridin-2-amine] | 3 to 1000 nM | < 0.3 nM | – | –
2 | Cc1cc(N)cc(-c2nc3c4c(nc(OCC5(C)CN(C)CCN5C)nc4c2F)N2C[C@H]4CC[C@H](N4)[C@H]2CCO3)c1C(F)(F)F (single isomer, unassigned) [Example 4] | 3 to 1000 nM | < 0.3 nM | – | –
3 | Cc1cc(N)cc(-c2nc3c4c(nc(OCC5(CN6CC7C(C6)C7(F)F)CC5)nc4c2F)N2C[C@H]4CC[C@H](N4)[C@H]2CCO3)c1C(F)(F)F (stereo partly drawn) [Example 168, 3-((6aR,7S,10R)-13-((1-((6,6-difluoro-3-azabicyclo[3.1.0]hexan-3-yl)methyl)cyclopropyl)methoxy)-1-fluoro-5,6,6a,7,8,9,10,11-octahydro-4-oxa-3,11a,12,14,15-pentaaza-7,10-methanocyclohepta[4,5]cycloocta[1,2,3-de]naphthalen-2-yl)-5-methyl-4-(trifluoromethyl)aniline] | 3 to 1000 nM | < 0.3 nM | – | –
4 | Cc1cc(N)cc(-c2nc3c4c(nc(OCC5(CN6CCN(C7CC7)CC6)CC5)nc4c2F)N2C[C@H]4CC[C@H](N4)[C@H]2CCO3)c1C(F)(F)F [Example 192, 3-((6aR,7S,10R)-13-((1-((4-cyclopropylpiperazin-1-yl)methyl)cyclopropyl)methoxy)-1-fluoro-5,6,6a,7,8,9,10,11-octahydro-4-oxa-3,11a,12,14,15-pentaaza-7,10-methanocyclohepta[4,5]cycloocta[1,2,3-de]naphthalen-2-yl)-5-methyl-4-(trifluoromethyl)aniline] | 0.3 to 3 nM | < 0.3 nM | – | –
5 | CCN1CC(F)CC(C)(COc2nc3c4c(nc(-c5cc(N)cc(C)c5C(F)(F)F)c(F)c4n2)OCC[C@@H]2[C@@H]4CC[C@H](CN32)N4)C1 (stereo partly drawn) [Example 202, 3-((6aR,7S,10R)-13-((1-ethyl-5-fluoro-3-methylpiperidin-3-yl)methoxy)-1-fluoro-5,6,6a,7,8,9,10,11-octahydro-4-oxa-3,11a,12,14,15-pentaaza-7,10-methanocyclohepta[4,5]cycloocta[1,2,3-de]naphthalen-2-yl)-5-methyl-4-(trifluoromethyl)aniline] | 3 to 1000 nM | < 0.3 nM | – | –
6 | [2H]C([2H])([2H])N1C[C@H](F)C[C@H]1[C@H](C)Oc1nc2c3c(nc(-c4cc(N)cc(C)c4C(F)(F)F)c(F)c3n1)OCC[C@@H]1[C@@H]3CC[C@H](CN21)N3 [Example 221, 3-((6aR,7S,10R)-1-fluoro-13-((S)-1-((2S,4R)-4-fluoro-1-(methyl-d3)pyrrolidin-2-yl)ethoxy)-5,6,6a,7,8,9,10,11-octahydro-4-oxa-3,11a,12,14,15-pentaaza-7,10-methanocyclohepta[4,5]cycloocta[1,2,3-de]naphthalen-2-yl)-5-methyl-4-(trifluoromethyl)aniline] | 3 to 1000 nM | < 0.3 nM | – | –
7 | CCN1C[C@H](F)C[C@H]1[C@H](C)Oc1nc2c3c(nc(-c4cc(N)cc(C)c4C(F)(F)F)c(F)c3n1)OCC[C@@H]1[C@@H]3CC[C@H](CN21)N3 [Example 222, 3-((6aR,7S,10R)-13-((S)-1-((2S,4R)-1-ethyl-4-fluoropyrrolidin-2-yl)ethoxy)-1-fluoro-5,6,6a,7,8,9,10,11-octahydro-4-oxa-3,11a,12,14,15-pentaaza-7,10-methanocyclohepta[4,5]cycloocta[1,2,3-de]naphthalen-2-yl)-5-methyl-4-(trifluoromethyl)aniline] | 3 to 1000 nM | < 0.3 nM | – | –
8 | [2H]C([2H])([2H])N1CCC(C(F)F)C(C)(C([2H])([2H])Oc2nc3c4c(nc(-c5cc(N)cc(Cl)c5C(F)(F)F)c(F)c4n2)OCC[C@@H]2[C@@H]4CC[C@H](CN32)N4)C1 (single isomer, unassigned) [Example 246] | 3 to 1000 nM | 0.3 to 3 nM | – | –
9 | Nc1cc(Cl)c(C(F)(F)F)c(-c2nc3c4c(nc(OC[C@@]56CCCN5CC(=C(F)F)C6)nc4c2F)N2C[C@H]4CC[C@H](N4)[C@H]2CCO3)c1 [Example 201, 3-chloro-5-((6aR,7S,10R)-13-(((S)-2-(difluoromethylene)tetrahydro-1H-pyrrolizin-7a(5H)-yl)methoxy)-1-fluoro-5,6,6a,7,8,9,10,11-octahydro-4-oxa-3,11a,12,14,15-pentaaza-7,10-methanocyclohepta[4,5]cycloocta[1,2,3-de]naphthalen-2-yl)-4-(trifluoromethyl)aniline] | 0.3 to 3 nM | < 0.3 nM | – | –
10 | Cc1cc(N)cc(-c2nc3c4c(nc(OCC5(CN6[C@@H]7CC[C@H]6COC7)CC5)nc4c2F)N2C[C@H]4CC[C@H](N4)[C@H]2CCO3)c1C(F)(F)F [Example 107, 3-((6aR,7S,10R)-13-((1-(((1R,5S)-3-oxa-8-azabicyclo [3.2.1]octan-8-yl)methyl)cyclopropyl)methoxy)-1-fluoro-5,6,6a,7,8,9,10,11-octahydro-4-oxa-3,11a,12,14,15-pentaaza-7,10-methanocyclohepta [4,5]cycloocta [1,2,3-de]naphthalen-2-yl)-5-methyl-4-(trifluoromethyl)aniline] | 3 to 1000 nM | < 0.3 nM | – | –
11 | Cc1cc(N)cc(-c2nc3c4c(nc(OCC5(CN6CC=CCC6)CC5)nc4c2F)N2C[C@H]4CC[C@H](N4)[C@H]2CCO3)c1C(F)(F)F [Example 112, 3-((6aR,7S,10R)-13-((1-((3,6-dihydropyridin-1(2H)-yl)methyl)cyclopropyl)methoxy)-1-fluoro-5,6,6a, 7,8,9,10,11-octahydro-4-oxa-3,11a,12,14,15-pentaaza-7,10-methanocyclohepta [4,5]cycloocta [1,2,3-de]naphthalen-2-yl)-5-methyl-4-(trifluoromethyl) aniline] | – | – | 3 to 1000 nM | < 0.3 nM
12 | Cc1cc(N)cc(-c2nc3c4c(nc(OCC5(CN6CCCC(C)(O)C6)CC5)nc4c2F)N2C[C@H]4CC[C@H](N4)[C@H]2CCO3)c1C(F)(F)F (mixture of isomers) [Example 116, 1-((1-((((6aR,7S, 10R)-2-(5-amino-3-methyl-2-(trifluoromethyl)phenyl)-1-fluoro-5,6,6a,7,8,9,10,11-octahydro-4-oxa-3,11a,12,14,15-pentaaza-7,10-methanocyclohepta [4,5]cycloocta [1,2,3-de]naphthalen-13-yl)oxy)methyl)cyclopropyl)methyl)-3-methylpiperidin-3-ol] | 3 to 1000 nM | 0.3 to 3 nM | – | –
13 | Nc1cc(Cl)c(C(F)(F)F)c(-c2nc3c4c(nc(OCC5(CN6CCC(=C(F)F)CC6)CC5)nc4c2F)N2C[C@H]4CC[C@H](N4)[C@H]2CCO3)c1 [Example 148, 3-chloro-5-((6aR,7S,10R)-13-((1-((4-(difluoromethylene)piperidin-1-yl)methyl)cyclopropyl)methoxy)-1-fluoro-5,6,6a,7,8,9,10,11-octahydro-4-oxa-3,11a,12,14,15-pentaaza-7,10-methano-cyclohepta[4,5]cycloocta [1,2,3-de]naphthalen-2-yl)-4-(trifluoromethyl)aniline] | 0.3 to 3 nM | < 0.3 nM | – | –
14 | Cc1cc(N)cc(-c2nc3c4c(nc(OCC5(C)CC(F)CN(C6CCOCC6)C5)nc4c2F)N2C[C@H]4CC[C@H](N4)[C@H]2CCO3)c1C(F)(F)F (single isomer, unassigned) [Example 233] | 3 to 1000 nM | 0.3 to 3 nM | – | –
15 | Cc1cc(N)cc(-c2nc3c4c(nc(OCC5(CN6CCCC6CO)CC5)nc4c2F)N2C[C@H]4CC[C@H](N4)[C@H]2CCO3)c1C(F)(F)F (single isomer, unassigned) [Example 124] | 3 to 1000 nM | 0.3 to 3 nM | – | –
16 | Cc1cc(N)cc(-c2nc3c4c(nc(OCC56C=CCN5C[C@H](F)C6)nc4c2F)N2C[C@H]4CC[C@H](N4)[C@H]2CCO3)c1C(F)(F)F (single isomer, unassigned) [Example 204] | 3 to 1000 nM | < 0.3 nM | – | –
17 | Cc1cc(N)cc(-c2nc3c4c(nc(OCC56CC(F)CN5CC(F)C6)nc4c2F)N2C[C@H]4CC[C@H](N4)[C@H]2CCO3)c1C(F)(F)F (stereo partly drawn) [Example 6, 3-((6aR,7S,10R)-13-((2,6-difluorotetrahydro-1H-pyrrolizin-7a(5H)-yl)methoxy)-1-fluoro-5,6,6a,7,8,9,10,11-octahydro-4-oxa-3,11a,12,14,15-pentaaza-7,10-methanocyclohepta[4,5]cycloocta [1,2,3-de]naphthalen-2-yl)-5-methyl-4-(trifluoromethyl)aniline] | 3 to 1000 nM | 0.3 to 3 nM | – | –
18 | CO[C@H]1CCN(C)[C@@H]1C(C)Oc1nc2c3c(nc(-c4cc(N)cc(C)c4C(F)(F)F)c(F)c3n1)OCC[C@@H]1[C@@H]3CC[C@H](CN21)N3 (single isomer, unassigned) [Example 75] | 3 to 1000 nM | < 0.3 nM | – | –
19 | Cc1cc(N)cc(-c2nc3c4c(nc(OC[C@@]5(C)CCCN(C6COC6)C5)nc4c2F)N2C[C@H]4CC[C@H](N4)[C@H]2CCO3)c1C(F)(F)F [Example 197, 3-((6aR,7S,10R)-1-fluoro-13-(((S)-3-methyl-1-(oxetan-3-yl)piperidin-3-yl)methoxy)-5,6,6a,7,8,9,10,11-octahydro-4-oxa-3,11a,12,14,15-pentaaza-7,10-methanocyclohepta[4,5]cycloocta[1,2,3-de]naphthalen-2-yl)-5-methyl-4-(trifluoromethyl)aniline] | 3 to 1000 nM | < 0.3 nM | – | –
